The subject of test [1] is Francisella tularensis SCHU4. Put plainly: microbe, parasite or virus in culture. In kind it is cell-based. The settings on record: SCHU4, read-out: MIC F. tularensis SCHU4.
The subject of test [2] is Bacillus anthracis Vollum 1B. The test is described as follows: microbe, parasite or virus in culture. In kind it is cell-based. The settings on record: VOLLUM1B, read-out: MIC B. anthracis Vollum-1b.
Another test relates to Burkholderia mallei CHN7. Put plainly: microbe, parasite or virus in culture. In kind it is cell-based. Particulars: CHN7, read-out: MIC B. mallei CHN7.
Another test relates to H. influenzae 49247. The test is described as follows: MIC, spiral gradient endpoint assay (GC II agar, 5% CO2). Particulars: for MIC: Haemophilus influenzae, 49247, read-out: MIC H. influenzae 49247.
Test [3] deals with Mycobacterium tuberculosis H37Rv. Put plainly: MIC, microplate Alamar Blue assay. The settings on record: read-out: MIC M. tuberculosis H37Rv.
Test [4] relates to Haemophilus influenzae ATCC 33391. The test is described as follows: MIC, spiral gradient endpoint assay (GC II agar, 5% CO2). Particulars: ATCC33391, read-out: MIC H. influenzae 33391.
The test system of test [5] is Escherichia coli D21f2tolC. Put plainly: MIC, spiral gradient endpoint assay. The settings on record: 16 h, read-out: MIC E. coli D21f2tolC.
The target of test [6] is M tuberculosis RNA polymerase core enzyme + M. tuberculosis σA (Mycobacterium tuberculosis, UniProt P9WGY7+P9WGY9). The test is described as follows: Fluorescence-detected assay of inhibition of Mycobacterium tuberculosis RNA polymerase. It counts as biochemical. The settings on record: read-out: IC50 Mt RNAP. How it is done:
(§1) Fluorescence-detected RNA polymerase assays with E. coli RNA polymerase were performed by a modification of the procedure of Kuhlman et al., 2004 (Kuhlman, P., Duff, H. & Galant, A. (2004) Anal. Biochem. 324, 183-190). Reaction mixtures contained (20 μl): 0-100 nM test compound, 75 nM E. coli RNA polymerase σ^70 holoenzyme, 20 nM 384 by DNA fragment containing the bacteriophage T4 N25 promoter, 100 μM ATP, 100 μM GTP, 100 μM UTP, 100 μM CTP, 50 mM Tris-HCl, pH 8.0, 100 mM KCl, 10 mM MgCl2, 1 mM DTT, 10 μg/ml bovine serum albumin, and 5.5% glycerol. Reaction components other than DNA and NTPs were pre-incubated for 10 mm at 37° C. Reactions were carried out by addition of DNA and incubation for 5 min at 37° C., followed by addition of NTPs and incubation for 60 min at 37° C. DNA was removed by addition of 1 μl 5 mM CaCl2 and 2 U DNaseI (Ambion, Inc.), followed by incubation for 90 min at 37° C. RNA was quantified by addition of 100 μl RiboGreen RNA Quantitation Reagent (Invitrogen, Inc.; 1:500 dilution in Tris-HCl, pH 8.0, 1 mM EDTA), followed by incubation for 10 min at 25° C., followed by measurement of fluorescence intensity [excitation wavelength=485 nm and emission wavelength=535 nm; QuantaMaster QMI spectrofluorometer (PTI, Inc.)]. IC50 was defined as the concentration of inhibitor resulting in 50% inhibition of RNA polymerase activity.
Fluorescence-detected RNA polymerase assays with M tuberculosis RNA polymerase were performed as in Example 17.1, using reaction mixtures containing (20 μl): 0-100 nM test compound, 75 nM M tuberculosis RNA polymerase core enzyme, 300 nM M. tuberculosis σ^A, 20 nM 384 by DNA fragment containing the bacteriophage T4 N25 promoter, 100 μM ATP, 100 μM GTP, 100 μM UTP, 100 μM CTP, 40 mM Tris-HCl, pH 8.0, 80 mM NaCl, 5 mM MgCl2, 2.5 mM DTT, and 12.7% glycerol. IC50 was defined as the concentration of inhibitor resulting in 50% inhibition of RNA polymerase activity.

Test [7] deals with S. aureus RNA polymerase core enzyme + S. aureus σA (Staphylococcus aureus, UniProt P47768+Q2G0N5). The test is described as follows: Fluorescence-detected assay of inhibition of Staphylococcus aureus RNA polymerase. It counts as biochemical. The settings on record: read-out: IC50 Sa RNAP. How it is done:
as §1
Fluorescence-detected RNA polymerase assays with S. aureus RNA polymerase were performed as in Example 17.1, using reaction mixtures containing (20 μl): 0-100 nM test compound, 75 nM S. aureus RNA polymerase core enzyme, 300 nM S. aureus σ^A, 20 nM 384 by DNA fragment containing the bacteriophage T4 N25 promoter, 100 μM ATP, 100 μM GTP, 100 μM UTP, 100 μM CTP, 40 mM Tris-HCl, pH 8.0, 80 mM NaCl, 5 mM MgCl2, 2.5 mM DTT, and 12.7% glycerol. IC50 was defined as the concentration of inhibitor resulting in 50% inhibition of RNA polymerase activity.

Test [8] relates to Moraxella catarrhalis ATCC 25238. The test is described as follows: MIC, spiral gradient endpoint assay (GC II agar, 5% CO2). Particulars: ATCC25238, read-out: MIC M. catarrhalis 25238.
Test [9] concerns the target E. coli RNA polymerase σ70 holoenzyme (Escherichia coli, UniProt P0A8T7+P0A8V2). Put plainly: Fluorescence-detected assay of inhibition of Escherichia coli RNA polymerase. In kind it is biochemical. Particulars: RiboGreen fluorescence, read-out: IC50 Ec RNAP. How it is done:
as §1

Test [10] concerns Enterococcus faecalis ATCC 19433. Put plainly: MIC, spiral gradient endpoint assay. The settings on record: ATCC19433, 16 h, read-out: MIC E. faecalis 19433.
The subject of test [11] is Staphylococcus aureus ATCC 12600. The test is described as follows: MIC, spiral gradient endpoint assay. Particulars: ATCC12600, 16 h, read-out: MIC S. aureus 12600.

In brackets after ≈: the same amount, converted by molar mass. A value given as a limit tells only on which side of the number the result lay.

S. aureus RNA polymerase core enzyme + S. aureus σA, sequence (P0A0J0 whole entry): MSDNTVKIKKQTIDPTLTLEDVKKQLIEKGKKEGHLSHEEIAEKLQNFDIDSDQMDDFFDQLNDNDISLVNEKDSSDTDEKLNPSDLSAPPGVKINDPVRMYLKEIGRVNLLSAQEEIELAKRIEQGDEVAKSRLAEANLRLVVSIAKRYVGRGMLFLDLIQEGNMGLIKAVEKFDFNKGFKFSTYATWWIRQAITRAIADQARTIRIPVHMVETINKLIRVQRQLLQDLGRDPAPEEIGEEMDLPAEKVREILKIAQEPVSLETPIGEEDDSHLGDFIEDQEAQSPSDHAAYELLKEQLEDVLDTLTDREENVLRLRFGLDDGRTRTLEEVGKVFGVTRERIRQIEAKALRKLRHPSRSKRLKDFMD
S. aureus RNA polymerase core enzyme + S. aureus σA, sequence (P47768 whole entry): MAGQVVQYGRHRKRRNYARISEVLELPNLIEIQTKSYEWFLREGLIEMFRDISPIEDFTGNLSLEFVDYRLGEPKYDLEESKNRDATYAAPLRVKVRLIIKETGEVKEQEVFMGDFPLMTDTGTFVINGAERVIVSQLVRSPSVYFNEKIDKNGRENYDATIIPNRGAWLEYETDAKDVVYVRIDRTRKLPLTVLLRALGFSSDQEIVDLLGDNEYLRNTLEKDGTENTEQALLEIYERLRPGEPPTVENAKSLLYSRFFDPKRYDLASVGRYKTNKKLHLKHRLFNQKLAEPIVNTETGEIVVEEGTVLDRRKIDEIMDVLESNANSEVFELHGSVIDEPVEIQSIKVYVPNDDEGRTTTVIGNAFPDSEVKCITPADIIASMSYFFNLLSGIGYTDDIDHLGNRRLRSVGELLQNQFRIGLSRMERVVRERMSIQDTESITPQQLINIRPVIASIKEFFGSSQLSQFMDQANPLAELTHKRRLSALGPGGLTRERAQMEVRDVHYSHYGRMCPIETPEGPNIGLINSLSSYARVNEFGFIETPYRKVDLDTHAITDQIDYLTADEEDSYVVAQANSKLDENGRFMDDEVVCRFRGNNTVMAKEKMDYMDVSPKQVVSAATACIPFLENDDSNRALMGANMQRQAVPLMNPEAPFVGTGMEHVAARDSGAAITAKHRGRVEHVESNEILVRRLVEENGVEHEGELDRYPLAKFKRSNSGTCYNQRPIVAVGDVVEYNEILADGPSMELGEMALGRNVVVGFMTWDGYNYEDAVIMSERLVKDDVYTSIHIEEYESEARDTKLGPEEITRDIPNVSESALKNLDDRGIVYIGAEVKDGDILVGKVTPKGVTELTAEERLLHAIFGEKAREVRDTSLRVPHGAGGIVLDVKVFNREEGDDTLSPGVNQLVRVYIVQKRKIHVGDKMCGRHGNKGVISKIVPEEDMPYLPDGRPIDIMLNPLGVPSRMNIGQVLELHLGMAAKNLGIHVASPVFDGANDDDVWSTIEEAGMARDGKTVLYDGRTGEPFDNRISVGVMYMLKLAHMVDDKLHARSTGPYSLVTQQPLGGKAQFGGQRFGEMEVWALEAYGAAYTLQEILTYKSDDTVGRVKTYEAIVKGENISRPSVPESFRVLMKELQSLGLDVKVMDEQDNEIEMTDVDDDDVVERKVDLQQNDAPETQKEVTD
S. aureus RNA polymerase core enzyme + S. aureus σA, sequence (Q2G0N5 whole entry): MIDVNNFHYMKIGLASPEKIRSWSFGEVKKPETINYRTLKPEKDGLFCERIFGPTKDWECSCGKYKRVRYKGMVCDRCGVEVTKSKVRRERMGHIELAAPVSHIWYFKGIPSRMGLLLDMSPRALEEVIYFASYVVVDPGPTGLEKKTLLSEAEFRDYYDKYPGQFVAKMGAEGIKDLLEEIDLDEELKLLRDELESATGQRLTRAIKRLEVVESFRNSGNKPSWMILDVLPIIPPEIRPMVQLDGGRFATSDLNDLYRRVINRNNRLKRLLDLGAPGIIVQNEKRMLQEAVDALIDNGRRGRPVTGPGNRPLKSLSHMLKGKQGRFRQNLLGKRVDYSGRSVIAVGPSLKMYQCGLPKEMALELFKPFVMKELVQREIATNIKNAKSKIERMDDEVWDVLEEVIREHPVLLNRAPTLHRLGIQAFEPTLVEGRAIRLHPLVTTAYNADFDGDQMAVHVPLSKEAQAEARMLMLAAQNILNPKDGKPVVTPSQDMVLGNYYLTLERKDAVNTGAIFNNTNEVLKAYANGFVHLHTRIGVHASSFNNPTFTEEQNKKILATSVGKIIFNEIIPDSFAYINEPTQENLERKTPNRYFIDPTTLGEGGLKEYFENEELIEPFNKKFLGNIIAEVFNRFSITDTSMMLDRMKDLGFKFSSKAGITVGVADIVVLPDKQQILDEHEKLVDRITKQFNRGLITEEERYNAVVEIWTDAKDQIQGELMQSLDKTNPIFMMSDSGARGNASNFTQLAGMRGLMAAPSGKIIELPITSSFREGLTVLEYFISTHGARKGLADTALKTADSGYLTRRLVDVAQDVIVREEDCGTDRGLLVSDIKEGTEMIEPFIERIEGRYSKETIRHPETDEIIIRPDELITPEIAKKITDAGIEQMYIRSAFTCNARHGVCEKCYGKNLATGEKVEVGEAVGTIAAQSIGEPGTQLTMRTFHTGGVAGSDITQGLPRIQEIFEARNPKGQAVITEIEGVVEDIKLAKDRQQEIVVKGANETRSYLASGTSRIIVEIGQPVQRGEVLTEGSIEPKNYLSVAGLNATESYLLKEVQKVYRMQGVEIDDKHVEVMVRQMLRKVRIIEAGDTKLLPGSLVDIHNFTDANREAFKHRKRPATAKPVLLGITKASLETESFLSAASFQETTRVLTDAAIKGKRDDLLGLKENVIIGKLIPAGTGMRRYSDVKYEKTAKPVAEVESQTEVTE
S. aureus RNA polymerase core enzyme + S. aureus σA, sequence (Q2FW32 whole entry, further chain): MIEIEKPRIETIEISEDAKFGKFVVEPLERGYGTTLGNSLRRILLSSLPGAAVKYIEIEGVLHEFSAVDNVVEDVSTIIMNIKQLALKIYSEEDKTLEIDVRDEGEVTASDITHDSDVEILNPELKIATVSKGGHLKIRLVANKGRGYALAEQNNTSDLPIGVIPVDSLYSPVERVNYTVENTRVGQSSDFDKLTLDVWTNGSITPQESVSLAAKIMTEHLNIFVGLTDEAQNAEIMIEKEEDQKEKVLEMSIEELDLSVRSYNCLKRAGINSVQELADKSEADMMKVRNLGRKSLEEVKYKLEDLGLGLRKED

The IC50 is the concentration needed to halve the response being measured. Regarding `O=C(CCc1ccccc1Cl)c1c(O)cc(O)cc1O` [0MTK11, 3-(2-chlorophenyl)propanoyl-phloroglucinol], the MIC in [1] is 3.12 µg/mL (≈ 10.7 µM); in test [2], 6.25 µg/mL (≈ 21.4 µM); in the test with Burkholderia mallei CHN7, 50 µg/mL (≈ 171 µM); in test [3] it was more than 50 µg/mL; in test [4] it was more than 40 µg/mL; in test [5], 8 µg/mL (≈ 27.3 µM). The MIC in [8] is more than 40 µg/mL; in test [10] it was more than 40 µg/mL; in [11], 16 µg/mL (≈ 54.7 µM). The MIC50 in the test with H. influenzae 49247 (Haemophilus influenzae, 49247, read-out: MIC50 H. influenzae 49247) turned out to be 35 µg/mL (≈ 120 µM). The figures for the IC50 in [6], in test [7] and in test [9] were 2.5 µM, 11 µM and 3.5 µM, respectively.
On to `O=C(CCc1cccc(Cl)c1)c1c(O)cc(O)cc1O` [0MTK12, 3-(3-chlorophenyl)propanoyl-phloroglucinol], for which the MIC in test [1] was 3.12 µg/mL (≈ 10.7 µM); in [2], 12.5 µg/mL (≈ 42.7 µM); in the test on Burkholderia mallei CHN7, 50 µg/mL (≈ 171 µM); in the test on H. influenzae 49247 it was more than 40 µg/mL; in test [3], 50 µg/mL (≈ 171 µM); in test [4], more than 40 µg/mL. The MIC in test [5] was 6 µg/mL (≈ 20.5 µM); in test [8] it was more than 40 µg/mL; in [10] it was 32 µg/mL (≈ 109 µM); in test [11], 16 µg/mL (≈ 54.7 µM). The IC50 in test [6] came to 4.8 µM; in test [7] it was 9 µM; in test [9], 2.6 µM.
Take `O=C(CCc1ccc(Cl)cc1)c1c(O)cc(O)cc1O` [0MTK13, 3-(4-chlorophenyl)propanoyl-phloroglucinol]: the MIC in test [1] is 3.12 µg/mL (≈ 10.7 µM); in test [2], 6.25 µg/mL (≈ 21.4 µM); with Burkholderia mallei CHN7, 12.5 µg/mL (≈ 42.7 µM); in the test on H. influenzae 49247 it was 32 µg/mL (≈ 109 µM); in test [3] it was 25 µg/mL (≈ 85.4 µM); in test [4] it was 32 µg/mL (≈ 109 µM). Besides, the MIC amounted to 2.7 µg/mL (≈ 9.22 µM) in test [5], 32 µg/mL (≈ 109 µM) in [8], 11 µg/mL (≈ 37.6 µM) in test [10] and 4 µg/mL (≈ 13.7 µM) in test [11]. Further, the IC50 in test [6] amounted to 2.3 µM; in test [7] it was 4.3 µM; in test [9], 1.1 µM.
As for `CCc1ccc(CCC(=O)c2c(O)cc(O)cc2O)cc1` [0MTK26, 3-(4-ethylphenyl)propanoyl-phloroglucinol], the MIC in [5] was 6.2 µg/mL (≈ 21.7 µM); in [10] it was 36 µg/mL (≈ 126 µM); in [11] it was 12.5 µg/mL (≈ 43.7 µM). The IC50 in test [6] is 3.6 µM; in test [7], 5.4 µM; in test [9], 1.5 µM.
Take `CC(C)c1ccc(CCC(=O)c2c(O)cc(O)cc2O)cc1` [0MTK27, 3-(4-isopropylphenyl)propanoyl-phloroglucinol]: the MIC in [5] worked out at 4.3 µg/mL (≈ 14.3 µM); in test [10], 16 µg/mL (≈ 53.3 µM); in [11], 9.8 µg/mL (≈ 32.6 µM). Besides, the IC50 in test [6] was found to be 4.9 µM; in test [7], 5.4 µM; in test [9], 2.3 µM.
Consider `CC(C)(C)c1ccc(CCC(=O)c2c(O)cc(O)cc2O)cc1` [0MTK28, 3-((4-tert-butyl)phenyl)propanoyl-phloroglucinol], for which the results for the MIC in [5], in test [10] and in test [11] were 3 µg/mL (≈ 9.54 µM), 11 µg/mL (≈ 35 µM) and 6.9 µg/mL (≈ 21.9 µM), respectively. In addition, the IC50 in [6] was determined as 4.6 µM; in [7] it was 6.4 µM; in test [9], 2.7 µM.
Regarding `Cc1cc(F)ccc1CCC(=O)c1c(O)cc(O)cc1O` [0MTK30, 3-(4-fluoro-2-methylphenyl)propanoyl-phloroglucinol], the figures for the MIC in test [5], in [10] and in test [11] were 7 µg/mL (≈ 24.1 µM), 26 µg/mL (≈ 89.6 µM) and 16 µg/mL (≈ 55.1 µM), respectively. For the same molecule, the IC50 in test [6] amounted to 3.7 µM; in test [7] it was 4.1 µM; in test [9], 1.8 µM.
Turning to `O=C(CCc1ccccc1C(F)(F)F)c1c(O)cc(O)cc1O` [0MTK31, 3-(2-(trifluoromethyl)phenyl)propanoyl-phloroglucinol], the results for the MIC in test [5], in [10] and in test [11] were 6 µg/mL (≈ 18.4 µM), 22 µg/mL (≈ 67.4 µM) and 14 µg/mL (≈ 42.9 µM), respectively. Further, the IC50 amounted to 3.5 µM in test [6], 4.8 µM in test [7] and 1.9 µM in test [9].
Regarding `O=C(CCc1ccc(C(F)(F)F)cc1C(F)(F)F)c1c(O)cc(O)cc1O` [0MTK32, 3-(2,4-bis(trifluoromethyl)phenyl)propanoyl-phloroglucinol], the MIC worked out at 2.2 µg/mL (≈ 5.58 µM) in test [5], 6.6 µg/mL (≈ 16.7 µM) in [10] and 3.6 µg/mL (≈ 9.13 µM) in test [11]. Further, the IC50 in [6] was 3.3 µM; in [7], 3.7 µM; in test [9], 2 µM.
`COc1ccccc1CCC(=O)c1c(O)cc(O)cc1O` [OMTK14, 3-(2-methoxyphenyl)propanoyl-phloroglucinol]: the MIC in test [1] is 12.5 µg/mL (≈ 43.4 µM); in [2], 25 µg/mL (≈ 86.7 µM); in the test on Burkholderia mallei CHN7 it was more than 50 µg/mL; in the test on H. influenzae 49247, more than 40 µg/mL; in test [3] it was more than 50 µg/mL; in test [4], more than 40 µg/mL. For the same molecule, the MIC was 12 µg/mL (≈ 41.6 µM) in [5], more than 40 µg/mL in [8], more than 40 µg/mL in test [10] and more than 40 µg/mL in test [11]. Further, the results for the IC50 in [6], in test [7] and in [9] were 9.9 µM, 7.2 µM and 2.7 µM, respectively.
In the case of `Cc1ccccc1CCC(=O)c1c(O)cc(O)cc1O` [OMTK18, 3-(2-methylphenyl)propanoyl-phloroglucinol], the MIC was 11 µg/mL (≈ 40.4 µM) in [5], more than 40 µg/mL in test [10] and more than 40 µg/mL in test [11]. For the same molecule, the half-inhibitory concentration (IC50) in test [6] worked out at 3.9 µM; in test [7] it was 7.9 µM; in test [9], 2.7 µM.
For `O=C(CCc1ccc(F)cc1)c1c(O)cc(O)cc1O` [OMTK21, 3-(4-fluorophenyl)propanoyl-phloroglucinol], the MIC was 10 µg/mL (≈ 36.2 µM) in test [5], more than 40 µg/mL in test [10] and more than 40 µg/mL in [11]. In addition, the IC50 in [6] stood at 4.4 µM; in [7], 7.2 µM; in test [9], 2.4 µM.
With `O=C(CCc1ccc(Br)cc1)c1c(O)cc(O)cc1O` [OMTK22, 3-(4-bromophenyl)propanoyl-phloroglucinol], the MIC in test [5] worked out at 5 µg/mL (≈ 14.8 µM); in [10], 22 µg/mL (≈ 65.2 µM); in test [11], 10 µg/mL (≈ 29.7 µM). Also, the IC50 in [6] is 1.7 µM; in test [7], 3.7 µM; in [9], 1.3 µM.
On to `O=C(CCc1ccc(C(F)(F)F)cc1)c1c(O)cc(O)cc1O` [OMTK23, 3-(4-trifluoromethylphenyl)propanoyl-phloroglucinol], for which the MIC is 5 µg/mL (≈ 15.3 µM) in test [5], 25 µg/mL (≈ 76.6 µM) in test [10] and 12 µg/mL (≈ 36.8 µM) in [11]. For the same molecule, the IC50 was determined as 2.3 µM in test [6], 4.8 µM in [7] and 1.6 µM in [9].

The values are drawn from patent US9517994B2, “Antibacterial agents: phloroglucinol derivatives” (Rutgers, the State University of New Jersey, priority 2012, dated 2016).
